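Results reflect a 48-hour exposure of cells in 96-well plates to compound at five concentrations. GI50 marks 50% less growth.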 Calls of active or inactive are those of the source. Rule as the data show it: active = GI50 up to about 1.1 µM and inactive = higher.
Legend:
Assay in all cases: growth of human tumour cells (NCI), 48 h
[1] = tested on: RPMI-8226
[2] = tested on: UACC-257
[3] = tested on: SK-MEL-5
[4] = tested on: CAKI-1
[5] = tested on: HOP-62
[6] = tested on: NCI-H23
[7] = tested on: M14
[8] = tested on: IGROV-1
[9] = tested on: HOP-92
[10] = tested on: EKVX
[11] = tested on: Malme-3M
[12] = tested on: UO-31
[13] = tested on: K562
[14] = tested on: OVCAR-8
[15] = tested on: OVCAR-5
[16] = tested on: OVCAR-4
[17] = tested on: NCI-H522
[18] = tested on: HCC 2998
[19] = tested on: ACHN

Measured: GI50

O=C1c2cccnc2S(=O)(=O)N1c1ccc(Br)cc1
inactive: [1] 91.6 µM | [2] > 100 µM | [3] > 100 µM | [4] > 100 µM | [5] > 100 µM | [6] > 100 µM | [7] > 100 µM | [8] > 100 µM | [9] 99.8 µM | [10] > 100 µM | [11] 73.6 µM | [12] > 100 µM | [13] 41.6 µM | [14] > 100 µM | [15] > 100 µM | [16] > 100 µM | [17] > 100 µM

COc1ccc(C[C@@H]2Cc3cc(OC)c(OC)cc3CN2C)cc1
inactive: [1] > 100 µM | [2] > 100 µM | [3] > 100 µM | [4] 59.7 µM | [18] > 100 µM | [5] > 100 µM | [6] > 100 µM | [7] > 100 µM | [10] > 100 µM | [11] > 100 µM | [12] > 100 µM | [13] > 100 µM | [14] > 100 µM | [15] > 100 µM | [19] > 100 µM | [16] 76.4 µM | [17] > 100 µM

O=S(=O)(OI(OI(OS(=O)(=O)C(F)(F)F)c1ccccc1)c1ccccc1)C(F)(F)F
inactive: [1] 11.6 µM | [3] 13.5 µM | [4] 27.8 µM | [18] > 100 µM | [5] 90.8 µM | [7] 43 µM | [8] 55.8 µM | [10] 58.9 µM | [11] 11.7 µM | [12] 47.2 µM | [13] 6.43 µM | [14] 48.8 µM | [15] > 100 µM | [19] 52.1 µM | [17] 23.2 µM

Cc1ccc(C2=CC(=O)c3ccccc3C2=O)n1-c1ccccc1
inactive: [1] 36.7 µM | [3] > 100 µM | [18] > 100 µM | [5] > 100 µM | [6] > 100 µM | [7] > 100 µM | [8] > 100 µM | [10] > 100 µM | [13] 53 µM | [14] > 100 µM | [16] 25.6 µM | [17] > 100 µM

CN(C)c1ccc2c(NCCCCCCNc3ccnc4cc(N(C)C)ccc34)ccnc2c1
inactive: [2] 14.9 µM | [3] 12.2 µM | [4] 42.6 µM | [18] 15.7 µM | [5] 19.2 µM | [6] 10.1 µM | [7] 22.6 µM | [10] 36.1 µM | [11] 2.85 µM | [12] 32.3 µM | [13] 2.74 µM | [14] 7.29 µM | [15] 25.2 µM | [19] 16.2 µM | [16] 11.9 µM | [17] 6.75 µM

O=c1c2cc(Br)ccc2nc(-c2ccccc2Cl)n1NCC1(O)OCC(O)C(O)C1O (stereo not given)
inactive: [1] 99.1 µM | [2] > 100 µM | [3] > 100 µM | [4] > 100 µM | [5] > 100 µM | [6] > 100 µM | [7] > 100 µM | [10] > 100 µM | [11] > 100 µM | [12] > 100 µM | [13] > 100 µM | [14] > 100 µM | [15] > 100 µM | [19] > 100 µM | [16] 60.7 µM | [17] > 100 µM

COc1c(C(=O)c2ccc([N+](=O)[O-])cc2)cc(C(C)(C)C)cc1C(C)(C)C
inactive: [1] 12.6 µM | [2] 22.9 µM | [3] 15.6 µM | [4] 41.6 µM | [18] 24.9 µM | [5] 49.5 µM | [6] 34.7 µM | [7] 22.9 µM | [8] 72.4 µM | [10] 47.4 µM | [11] 26.5 µM | [12] 40.8 µM | [13] 25.6 µM | [14] 52.7 µM | [15] 13.4 µM | [19] 31.3 µM | [16] 43.1 µM | [17] 21.5 µM

CCCCC1(C)C=C/C(=C2/C(=O)O/C(=C\C(=O)O)C2=O)O1 (stereo not given)
inactive: [1] > 100 µM | [2] > 100 µM | [3] > 100 µM | [5] > 100 µM | [6] > 100 µM | [7] > 100 µM | [8] > 100 µM | [10] > 100 µM | [11] > 100 µM | [12] > 100 µM | [13] > 100 µM | [14] > 100 µM | [15] > 100 µM | [19] > 100 µM | [16] > 100 µM

OCc1c[te]c(-c2ccccc2)c1
inactive: [1] 24 µM | [2] 57.5 µM | [3] 30.7 µM | [4] 47.4 µM | [18] > 100 µM | [5] 32.2 µM | [6] 22.1 µM | [7] 84.7 µM | [8] > 100 µM | [10] 99.8 µM | [11] > 100 µM | [12] 23.3 µM | [13] 38.5 µM | [14] 34.4 µM | [15] > 100 µM | [19] 53.3 µM | [16] 32 µM

CCSC12CC3c4cccc5c4C(CN5C(=O)c4ccccc4)CC3(O1)N(C)C2=O (stereo not given)
inactive: [2] 29.4 µM | [3] 14.7 µM | [4] 92 µM | [6] 24.7 µM | [7] 46.7 µM | [8] 31.3 µM | [9] 24.1 µM | [10] 24.2 µM | [11] 35.6 µM | [12] 47.3 µM | [13] 33.3 µM | [14] 31.5 µM | [15] 83 µM | [19] 33.6 µM | [16] 36.9 µM | [17] 25.1 µM

NC(=O)c1cc2ccccc2c(/N=N/c2ccccc2)c1O
inactive: [1] 59.6 µM | [2] > 100 µM | [3] > 100 µM | [4] 23.5 µM | [5] 22.6 µM | [6] > 100 µM | [7] > 100 µM | [8] > 100 µM | [9] 12.5 µM | [10] 39.4 µM | [11] > 100 µM | [12] > 100 µM | [13] 71.9 µM | [14] 29.9 µM | [15] > 100 µM | [16] 19.4 µM | [17] 38.7 µM

CN(C)c1ccc(-c2cc(O)c3cc4c(cc3n2)OCO4)cc1
inactive: [1] > 100 µM | [2] > 100 µM | [3] > 100 µM | [18] > 100 µM | [5] 73.5 µM | [6] > 100 µM | [7] > 100 µM | [8] > 100 µM | [10] > 100 µM | [11] > 100 µM | [12] > 100 µM | [13] > 100 µM | [14] > 100 µM | [19] > 100 µM | [16] > 100 µM

C=CCC1(CC)C(=O)NC(=O)NC1=O [ETALLOBARBITAL]
inactive: [1] > 100 µM | [2] > 100 µM | [18] > 100 µM | [5] > 100 µM | [6] > 100 µM | [7] > 100 µM | [8] > 100 µM | [10] > 100 µM | [11] > 100 µM | [12] > 100 µM | [13] > 100 µM | [14] > 100 µM | [19] > 100 µM | [17] > 100 µM

Source: ChEMBL document CHEMBL1201862, “PubChem BioAssay data set” (2004)
